According to PMC6332508, “A Promising PET Tracer for Imaging of α7 Nicotinic Acetylcholine Receptors in the Brain: Design, Synthesis, and in Vivo Evaluation of a Dibenzothiophene-Based Radioligand” (Molecules, 2015):

Assays:
[1] = In vitro radiochemical stability; assay type: physicochemical; conditions: 40 °C, up to 90 min
Description: (§1) in vitro radiochemical stability of [^18F]10a was investigated in 0.9% NaCl solution, PBS (pH 7.2), and 0.01 M Tris-HCl (pH 7.4 at 21 °C) at 40 °C and in EtOH at room temperature for up to 90 min. Samples were taken at 15, 30, 60, and 90 min of incubation time and analyzed by radio-TLC and radio-HPLC. Log D7.2 of [^18F]10a was experimentally determined in n-octanol/phosphate-buffered saline (PBS; 0.01 M, pH 7.2) at room temperature by the shake-flask method in multiple distribution. Measurement was performed twice in triplicate.

α7 nAChR = target: T1, α7 nAChR (Macaca mulatta, UniProt Q866A2); experiment: Comparative PET study in a rhesus monkey; assay type: in vivo, rhesus monkey (Macaca mulatta)
T1 construct: from tissue; host or cells: brain of a living rhesus monkey
T1 sequence (Q866A2 23-502): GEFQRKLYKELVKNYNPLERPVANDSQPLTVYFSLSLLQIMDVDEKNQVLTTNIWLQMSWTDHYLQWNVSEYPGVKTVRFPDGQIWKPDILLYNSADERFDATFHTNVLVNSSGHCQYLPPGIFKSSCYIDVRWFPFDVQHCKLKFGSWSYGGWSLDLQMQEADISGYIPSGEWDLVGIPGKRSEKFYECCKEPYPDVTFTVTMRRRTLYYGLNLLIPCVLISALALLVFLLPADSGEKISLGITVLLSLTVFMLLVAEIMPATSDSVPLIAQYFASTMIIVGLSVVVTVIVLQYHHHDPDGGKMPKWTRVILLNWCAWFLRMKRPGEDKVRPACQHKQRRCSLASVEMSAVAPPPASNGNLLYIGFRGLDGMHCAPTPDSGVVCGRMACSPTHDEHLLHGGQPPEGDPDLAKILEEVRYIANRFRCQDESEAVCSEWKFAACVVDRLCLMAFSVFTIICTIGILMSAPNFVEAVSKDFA
Description: One male rhesus monkey (Macaca mulatta, 6 years old, body weight = 10 kg) underwent two PET imaging sessions with [^18F]10a and [^18F]10b, respectively. The scans were conducted 19 days apart. The monkey was initially sedated by intramuscular ketamine at 10 mg∙kg^−1 at ~2 h before the PET scan and anesthetized by 1.5%–3% isoflurane throughout the imaging session. PET scan was performed using a FOCUS-220 PET scanner (Siemens Preclinical Solutions, Knoxville, TN, USA). After a transmission scan, 167 MBq of [^18F]10a (specific activity of 362 GBq∙μmol^−1) or 185 MBq of [^18F]10b (specific activity of 159 GBq·μmol^−1) were administered intravenously. Emission data were acquired in list mode for 240 min. Raw list-mode PET data was histogrammed (frames of 6 × 30 s; 3 × 1 min; 2 × 2 min; 46 × 5 min to scan termination) and reconstructed with 2D filtered back projection, using a 0.15 cm^−1 Shepp filter and including corrections for scanner normalization, detector dead time, randoms, and radiation scatter and attenuation. The PET images were then registered to MR images, acquired with a Siemens 3 T Trio scanner, with a 6-parameter rigid body registration. The MR native space was then normalized using nonlinear affine registration to a high-resolution rhesus monkey atlas using BioImage Suite 3.01 (http://www.bioimagesuite.org/index.html). Time-activity curves were extracted by mapping atlas-defined regions to PET native space using the optimal transformation matrices calculated in the registration and normalization steps. Regions extracted included amygdala, caudate, cerebellum, cingulate, cortical regions (frontal, occipital, and temporal cortex), hippocampus, putamen, thalamus, and pons.

[2] = Distribution coefficient, shake-flask method, n-octanol/PBS; assay type: physicochemical; conditions: n-octanol/phosphate-buffered saline; n-octanol-PBS, pH 7.2, shake-flask, n = 3; read-out: log D7.2
Description: as §1

[3] = Metabolite analysis in pig plasma; assay type: in vivo, pigs
Description: To control the quality of the K[^18F]F-Kryptofix®222/K2CO3-complex, reactions using ethylene glycol ditosylate were performed randomly. Radio-TLC of [^18F]10a and [^18F]10b was performed on Polygram® ALOX N/UV254 plates (Macherey-Nagel GmbH & Co. KG) with dichloromethane/methanol (9:1, v/v). The spots of the references were visualized using UV light at 254 nm.
Arterial blood was sampled using a peristaltic pump during the first 20 min of the scan followed by manual sampling at 25, 30, 40, 50, 60, 90, 120, 150, 180, 210, and 240 min after injection. Plasma was obtained by centrifugation (13,000 rpm, 2 min at 21 °C) and total radioactivity concentration was measured using a gamma-counter (1470 Wizard; PerkinElmer, Shelton, CT, USA) cross-calibrated to the PET scanner. […]
The plasma input function was corrected for the presence of radioactive metabolites by determination of the parent fraction as described previously. Plasma samples were de-proteinized by addition of ice-cold acetonitrile (500 μL MeCN/100 μL plasma) followed by centrifugation (13,000 rpm, 10 min). Aliquots of the original plasma sample and of the supernatant obtained after centrifugation were counted for radioactivity, and the supernatant was analyzed by radio-HPLC following the chromatographic methods described in quality control. The parent fraction as a function of time was fitted iteratively with the Levenberg-Marquardt algorithm, including decay correction, to calculate metabolite corrected input function.

Compound: O=S1(=O)c2ccc([18F])cc2-c2ccc(N3CCN4CCC3CC4)cc21 [[^18F]10a]
- stability in physiological solutions and organic solvents [1]: stable
- total volume of distribution VT (α7 nAChR; cerebellum): 28.5 mL∙cm^−3
- total volume of distribution VT (α7 nAChR; thalamus): 48.1 mL∙cm^−3
- logD [2]: 1.3 ± 0.1
- Parent fraction of total radioactivity in plasma ([3]; 2 min p.i.): 88%
- Parent fraction of total radioactivity in plasma ([3]; 60 min p.i.): 24%
- Parent fraction of total radioactivity in plasma ([3]; 120 min p.i.): 19%
